Reference: patent US9181266B2, “2-piperidin-1-yl-acetamide compounds for use as tankyrase inhibitors” (NOVARTIS AG, priority 2011, dated 2015)

Assays:
[1] = test system: Non-small lung cancer ABC-1 cells; assay: Cellular proliferation assay (CellTiter-Glo); assay type: cell-based; details: Homo sapiens, 72 h; ABC-1 cells, 3 days of compound treatment; read-out: ABC-1 IC50
Method: Cellular Proliferation Assay to Determine Compound Inhibition of Cancer Cell Growth
Viable cells were measured after 3 days of compound treatment using the CellTiter-Glo assay (Promega, G7570). Assay was performed following the manufacture protocol.

[2] = target: tankyrase 2 protein PARP domain, TNKS2P (Homo sapiens (Human), UniProt Q9H2K2); assay: TNKS2 autoparsylation assay (LC/MS detection of nicotinamide); details: read-out: TNKS2 AP IC50, 20 nM enzyme, 250 μM β-NAD+, 60 min
[3] = target: human tankyrase 1 PARP catalytic domain, TNKS1P (Homo sapiens (Human), UniProt O95271); assay: TNKS1 autoparsylation assay (LC/MS detection of nicotinamide); details: read-out: TNKS1 AP IC50, 20 nM enzyme, 250 μM β-NAD+, 60 min
[4] = target: Human PARP1 (Homo sapiens (Human), UniProt P09874); assay: PARP1 autoparsylation assay (LC/MS detection of nicotinamide); assay type: biochemical; details: 20 nM enzyme, 250 μM β-NAD+, 60 min
Method: (§1) The autoparsylation activity of the TNKS 1/2 or PARP1/2 enzymes was measured by the liquid chromatography-mass spectrometry (LC/MS) detection of nicotinamide as readout. Compound activity in inhibiting the TNKS and PARP autoparsylation was evaluated by IC50 measurements.

[5] = test system: Wnt ligand-induced signaling in HEK293 cells; assay: Wnt-responsive Super-TOpFlash (STF) luciferase reporter gene assay; assay type: cell-based; details: Homo sapiens, Wnt3A condition medium
Outline: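 HEK293 cells (8000/well, 5% FBS medium) treated with 20% mouse L-cell Wnt3A conditioned medium plus compounds in 10-point serial dilution; luciferase read next day. Inhibition calculated relative to Wnt3A-induced signal without compound and background without Wnt3A CM or compound.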

[6] = test system: Axin2 protein in SW480 cells; assay: Cellular ELISA assay of Axin2 protein stabilization; assay type: cell-based; details: Homo sapiens, 24 hrs, read-out: Axin AC50
Outline: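 SW480 colorectal cells seeded overnight, treated with compound, then lysed. Axin2 in lysates measured by sandwich ELISA: anti-Axin2 capture antibody coated at 1 μg/ml (pH 9.2), lysate 2 h at room temperature, biotinylated anti-Axin2 detection 2 h, then streptavidin-HRP 30 min.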

[7] = target: PARP2 (Mus musculus (Mouse), UniProt O88554); assay: PARP2 autoparsylation assay (LC/MS detection of nicotinamide); assay type: biochemical; details: 20 nM enzyme, 250 μM β-NAD+, 60 min
Method: as §1

Chain of Human PARP1 (P09874 whole entry): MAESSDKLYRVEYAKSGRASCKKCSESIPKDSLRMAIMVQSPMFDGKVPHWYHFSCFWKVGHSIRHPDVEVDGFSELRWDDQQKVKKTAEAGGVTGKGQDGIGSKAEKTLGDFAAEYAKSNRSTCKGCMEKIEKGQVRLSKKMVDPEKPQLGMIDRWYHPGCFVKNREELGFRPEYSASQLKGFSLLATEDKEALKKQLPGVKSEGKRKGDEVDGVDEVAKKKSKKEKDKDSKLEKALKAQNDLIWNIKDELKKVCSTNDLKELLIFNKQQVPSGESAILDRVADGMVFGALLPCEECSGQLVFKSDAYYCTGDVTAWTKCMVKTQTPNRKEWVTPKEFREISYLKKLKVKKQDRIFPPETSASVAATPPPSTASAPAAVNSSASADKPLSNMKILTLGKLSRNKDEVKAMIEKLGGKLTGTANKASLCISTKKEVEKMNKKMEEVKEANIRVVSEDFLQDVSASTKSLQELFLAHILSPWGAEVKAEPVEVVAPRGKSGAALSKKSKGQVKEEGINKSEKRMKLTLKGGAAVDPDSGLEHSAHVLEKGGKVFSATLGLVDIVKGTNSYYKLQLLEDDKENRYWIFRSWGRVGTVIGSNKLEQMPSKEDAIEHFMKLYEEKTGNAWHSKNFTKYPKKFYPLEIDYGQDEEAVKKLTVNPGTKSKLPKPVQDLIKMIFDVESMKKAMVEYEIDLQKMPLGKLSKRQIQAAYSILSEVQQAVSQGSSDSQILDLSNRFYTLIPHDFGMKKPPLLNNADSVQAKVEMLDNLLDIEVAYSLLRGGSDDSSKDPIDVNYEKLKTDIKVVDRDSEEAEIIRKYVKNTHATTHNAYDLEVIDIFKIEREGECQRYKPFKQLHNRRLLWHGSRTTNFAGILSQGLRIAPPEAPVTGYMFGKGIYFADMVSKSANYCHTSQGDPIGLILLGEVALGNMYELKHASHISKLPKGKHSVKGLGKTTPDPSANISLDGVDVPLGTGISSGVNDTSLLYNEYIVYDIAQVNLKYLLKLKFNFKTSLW
Chain of tankyrase 2 protein PARP domain, TNKS2P (Q9H2K2 959-1164): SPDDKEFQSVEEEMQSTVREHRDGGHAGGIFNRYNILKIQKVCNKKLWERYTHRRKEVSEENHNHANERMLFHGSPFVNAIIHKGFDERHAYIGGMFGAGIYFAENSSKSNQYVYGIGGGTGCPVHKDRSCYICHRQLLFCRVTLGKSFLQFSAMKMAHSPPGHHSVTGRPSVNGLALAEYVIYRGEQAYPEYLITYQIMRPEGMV
Chain of PARP2 (O88554 whole entry): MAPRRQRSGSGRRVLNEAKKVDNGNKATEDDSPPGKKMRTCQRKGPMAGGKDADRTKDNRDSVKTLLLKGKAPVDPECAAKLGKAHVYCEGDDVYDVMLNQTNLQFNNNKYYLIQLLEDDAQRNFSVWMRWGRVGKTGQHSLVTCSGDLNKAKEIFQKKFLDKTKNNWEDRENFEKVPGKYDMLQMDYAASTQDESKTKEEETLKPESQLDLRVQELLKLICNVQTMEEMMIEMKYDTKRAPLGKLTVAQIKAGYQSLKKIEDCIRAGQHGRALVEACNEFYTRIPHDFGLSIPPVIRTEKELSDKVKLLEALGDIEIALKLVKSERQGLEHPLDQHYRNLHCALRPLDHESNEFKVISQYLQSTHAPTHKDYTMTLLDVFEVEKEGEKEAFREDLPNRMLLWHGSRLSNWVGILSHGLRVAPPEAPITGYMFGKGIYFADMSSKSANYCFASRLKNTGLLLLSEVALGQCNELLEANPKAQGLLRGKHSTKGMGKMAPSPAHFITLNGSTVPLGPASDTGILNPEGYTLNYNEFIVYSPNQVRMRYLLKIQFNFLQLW
Chain of human tankyrase 1 PARP catalytic domain, TNKS1P (O95271 1112-1317): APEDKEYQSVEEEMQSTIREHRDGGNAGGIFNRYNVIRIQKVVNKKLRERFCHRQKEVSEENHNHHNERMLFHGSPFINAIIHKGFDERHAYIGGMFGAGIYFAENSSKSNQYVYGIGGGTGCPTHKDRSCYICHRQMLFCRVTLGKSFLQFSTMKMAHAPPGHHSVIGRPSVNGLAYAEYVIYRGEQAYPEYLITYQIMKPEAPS

SMILES	IC50 [1]	IC50 [2]	IC50 [3]	IC50 [4]	IC50 [5]	AC50 [6]	IC50 [7]
CC(C)N(Cc1nc2c(c(=O)[nH]1)COCC2)C(=O)CN1CCC(C(=O)c2ccc(F)cc2)CC1 [Example 33, 2-(4-(4-Fluorobenzoyl)piperidin-1-yl)-N-isopropyl-N-((4-oxo-4,5,7,8-tetrahydro-3H-pyrano[4,3-d]pyrimidin-2-yl)methyl)acetamide]	690 ± 100 nM	20 ± 1 nM	95 ± 1 nM	> 19000 nM	59 ± 20 nM	2800 ± 1400 nM	> 19000 nM
C[C@H](c1ccc(F)cc1)N(Cc1nc2c(c(=O)[nH]1)COCC2)C(=O)CN1CCC(C(=O)c2ccc(F)cc2)CC1 [Example 36, (R)-2-(4-(4-Fluorobenzoyl)piperidin-1-yl)-N-(1-(4-fluorophenyl)ethyl)-N-((4-oxo-4,5,7,8-tetrahydro-3H-pyrano[4,3-d]pyrimidin-2-yl)methyl)acetamide]	2630 nM	25 ± 7 nM	104 ± 28 nM	> 19000 nM	127 ± 47 nM	1850 ± 310 nM	> 19000 nM
CC(c1ccc(F)cc1F)N(Cc1nc2c(c(=O)[nH]1)COCC2)C(=O)CN1CCC(C(=O)c2ccc(F)cc2)CC1 (centres unmarked) [Example 37, N-(1-(2,4-Difluorophenyl)ethyl)-2-(4-(4-fluorobenzoyl)piperidin-1-yl)-N-((4-oxo-4,5,7,8-tetrahydro-3H-pyrano[4,3-d]pyrimidin-2-yl)methyl)acetamide]	510 nM	39.5 ± 7.8 nM	155 ± 34 nM	> 19000 nM	96 ± 19 nM	960 ± 520 nM	> 19000 nM
O=C(c1ccc(F)cc1)C1CCN(CC(=O)N(Cc2nc3c(c(=O)[nH]2)COCC3)Cc2ccccc2F)CC1 [Example 39, 2-(4-(4-Fluorobenzoyl)piperidin-1-yl)-N-(2-fluorobenzyl)-N-((4-oxo-4,5,7,8-tetrahydro-3H-pyrano[4,3-d]pyrimidin-2-yl)methyl)acetamide]	230 ± 99 nM	9 ± 1 nM	43 ± 1 nM	> 19000 nM	17 ± 3 nM	112 ± 18 nM	> 19000 nM
O=C(c1ccc(F)cc1)C1CCN(CC(=O)N(Cc2nc3c(c(=O)[nH]2)COCC3)Cc2ccc(F)cc2F)CC1 [Example 40, N-(2,4-Difluorobenzyl)-2-(4-(4-fluorobenzoyl)piperidin-1-yl)-N-((4-oxo-4,5,7,8-tetrahydro-3H-pyrano[4,3-d]pyrimidin-2-yl)methyl)acetamide]	520 ± 14 nM	14 ± 1 nM	77 ± 5 nM	> 19000 nM	28 ± 4 nM	431 ± 40 nM	> 19000 nM
C[C@H](C1CC1)N(Cc1nc2c(c(=O)[nH]1)COCC2)C(=O)CN1CCC(C(=O)c2ccc(F)cc2)CC1 [Example 41, (R)—N-(1-Cyclopropylethyl)-2-(4-(4-fluorobenzoyl)piperidin-1-yl)-N-((4-oxo-4,5,7,8-tetrahydro-3H-pyrano[4,3-d]pyrimidin-2-yl)methyl)acetamide]	476 nM	32 ± 1 nM	16 ± 1 nM	> 19000 nM	32 ± 1.4 nM	720 ± 150 nM	> 19000 nM
C[C@@H](C1CC1)N(Cc1nc2c(c(=O)[nH]1)COCC2)C(=O)CN1CCC(C(=O)c2ccc(F)cc2)CC1 [Example 42, (S)—N-(1-Cyclopropylethyl)-2-(4-(4-fluorobenzoyl)piperidin-1-yl)-N-((4-oxo-4,5,7,8-tetrahydro-3H-pyrano[4,3-d]pyrimidin-2-yl)methyl)acetamide]	290 nM	10 ± 1 nM	42 ± 3 nM	> 19000 nM	45.7 ± 4.9 nM	589 ± 60 nM	> 19000 nM
O=C(c1ccc(F)cc1)C1CCN(CC(=O)N(CCF)Cc2nc3c(c(=O)[nH]2)COCC3)CC1 [Example 44, 2-[4-(4-Fluoro-benzoyl)-piperidin-1-yl]-N-(2-fluoro-ethyl)-N-(4-oxo-3,5,7,8-tetrahydro-4H-pyrano[4,3-d]pyrimidin-2-ylmethyl)-acetamide]	6400 nM	19 ± 1.4 nM	72 ± 1.4 nM	> 19000 nM	1470 ± 360 nM	> 10000 nM	> 19000 nM
O=C(c1ccc(F)cc1)C1CCN(CC(=O)N(Cc2nc3c(c(=O)[nH]2)COCC3)CC(F)F)CC1 [Example 45, N-(2,2-Difluoro-ethyl)-2-[4-(4-fluoro-benzoyl)-piperidin-1-yl]-N-(4-oxo-3,5,7,8-tetrahydro-4H-pyrano[4,3-d]pyrimidin-2-ylmethyl)-acetamide]	509 ± 47 nM	10.2 ± 7.4 nM	37 ± 17 nM	> 19000 nM	16 ± 9 nM	450 ± 90 nM	> 19000 nM
O=C(c1ccc(F)cc1)C1CCN(CC(=O)N(Cc2nc3c(c(=O)[nH]2)COCC3)CC(F)(F)F)CC1 [Example 48, 2-[4-(4-Fluoro-benzoyl)-piperidin-1-yl]-N-(4-oxo-3,5,7,8-tetrahydro-4H-pyrano[4,3-d]pyrimidin-2-ylmethyl)-N-(2,2,2-trifluoro-ethyl)-acetamide]	790 ± 180 nM	14 ± 1 nM	55 ± 3 nM	> 19000 nM	14 ± 6 nM	610 ± 240 nM	> 19000 nM
CC(c1cccs1)N(Cc1nc2c(c(=O)[nH]1)COCC2)C(=O)CN1CCC(C(=O)c2ccc(F)cc2)CC1 (centres unmarked) [Example 49, 2-[4-(4-Fluoro-benzoyl)-piperidin-1-yl]-N-(4-oxo-3,5,7,8-tetrahydro-4H-pyrano[4,3-d]pyrimidin-2-ylmethyl)-N-(1-thiophen-2-yl-ethyl)-acetamide]	170 nM	16.5 ± 0.7 nM	47.5 ± 3.5 nM	> 19000 nM	16 ± 4 nM	86 ± 3 nM	> 19000 nM
COc1ccc(C(=O)C2CCN(CC(=O)N(Cc3nc4c(c(=O)[nH]3)COCC4)CC(F)F)CC2)cc1 [Example 50, N-(2,2-Difluoro-ethyl)-2-[4-(4-methoxy-benzoyl)-piperidin-1-yl]-N-(4-oxo-3,5,7,8-tetrahydro-4H-pyrano[4,3-d]pyrimidin-2-ylmethyl)-acetamide]	45 nM	12 ± 1 nM	18 ± 7 nM	> 19000 nM	9.5 ± 0.5 nM	30 ± 6 nM	> 19000 nM
COCCN(Cc1nc2c(c(=O)[nH]1)COCC2)C(=O)CN1CCC(C(=O)c2ccc(OC)cc2)CC1 [Example 54, 2-[4-(4-Methoxy-benzoyl)-piperidin-1-yl]-N-(2-methoxy-ethyl)-N-(4-oxo-3,5,7,8-tetrahydro-4H-pyrano[4,3-d]pyrimidin-2-ylmethyl)-acetamide]	1840 nM	14 ± 3 nM	35 ± 6 nM	> 19000 nM	91 ± 13 nM	1200 ± 100 nM	> 19000 nM
COc1ccc(C(=O)C2CCN(CC(=O)NCc3nc4c(c(=O)[nH]3)COCC4)CC2)cc1 [Example 67, 2-(4-(4-Methoxybenzoyl)piperidin-1-yl)-N-((4-oxo-4,5,7,8-tetrahydro-3H-pyrano[4,3-d]pyrimidin-2-yl)methyl)acetamide]	45 nM	12 ± 2 nM	28 ± 6 nM	10000 ± 3200 nM	5.3 ± 4.1 nM	16 ± 3 nM	3640 ± 630 nM
O=C(c1ccc(OC(F)(F)F)cc1)C1CCN(CC(=O)N(Cc2nc3c(c(=O)[nH]2)COCC3)CC2CC2)CC1 [Example 70, N-Cyclopropylmethyl-N-(4-oxo-3,5,7,8-tetrahydro-4H-pyrano[4,3-c]pyrimidin-2-ylmethyl)-2-[4-(4-trifluoromethoxy-benzoyl)-piperidin-1-yl]-acetamide]	392 nM	8 nM	37 ± 2 nM	> 19000 nM	8 ± 1.6 nM	135 ± 7 nM	> 19000 nM
O=C(c1ccc(OC(F)(F)F)cc1)C1CCN(CC(=O)N(Cc2nc3c(c(=O)[nH]2)COCC3)CC(F)F)CC1 [Example 71, N-(2,2-Difluoro-ethyl)-N-(4-oxo-3,5,7,8-tetrahydro-4H-pyrano[4,3-d]pyrimidin-2-ylmethyl)-2-[4-(4-trifluoromethoxy-benzoyl)-piperidin-1-yl]-acetamide]	100 nM	15 ± 1 nM	43 ± 1 nM	> 19000 nM	17.5 ± 6.6 nM	58 ± 12 nM	11760 ± 50 nM
CC#CCOc1ccc(C(=O)C2CCN(CC(=O)N(Cc3nc4c(c(=O)[nH]3)COCC4)CC3CC3)CC2)cc1 [Example 78, 2-[4-(4-But-2-ynyloxy-benzoyl)-piperidin-1-yl]-N-cyclopropylmethyl-N-(4-oxo-3,5,7,8-tetrahydro-4H-pyrano[4,3-d]pyrimidin-2-ylmethyl)-acetamide]	2010 nM	15 ± 2 nM	29 ± 2 nM	14700 ± 4600 nM	155 ± 8 nM	1920 ± 240 nM	> 19000 nM
